The test system of assay [1] is H460 cells. Kind of assay: Cell cycle analysis by flow cytometry (PI). The settings on record: 10μM 5MPN. The assay is classed as cell-based, human. How it is done:
To measure apoptosis, cells were stained with annexin V and propidium iodide and examined as previously described. For cell cycle experiments, cells were detached, washed with cold PBS and fixed in 70% ethanol at 4°C for 30 minutes. The cells then were pelleted by centrifugation, resuspended in PBS containing PI and RNase A, incubated at 37°C in the dark for 30 minutes and analyzed by flow cytometry (BD FACSCalibur). Data were analyzed using FlowJo software (TREE STAR Inc.). Results were calculated as the mean ± SD of three experiments and data shown are representative of three independent experiments.
For orientation: A flow cytometer gives signals particle by particle.

A further assay concerns the target human recombinant PFKFB3 (Homo sapiens, UniProt Q16875). Briefly: In vitro kinase assay with purified recombinant human PFKFB3. The assay is classed as biochemical. The settings on record: 10 μM. The protocol:
(§1) Figure 1 Compound 5MPN inhibits recombinant PFKFB4 enzyme activity A. Representation of the 5MPN molecule docked in the crystal structure of rat testes PFKFB4. 5MPN is shown in thicker stick representation than the surrounding protein residues. B. Molecular structure of 5MPN (MW, 305.3 Da). In vitro kinase assays using purified recombinant human PFKFB4 were performed as described in the presence or absence of 0.1, 1 or 10 μM 5MPN. Michaelis-Menten C. and Lineweaver-Burk double reciprocal D. plots examining PFKFB4 enzyme activity as a function of F6P concentration (0 - 2000 μmol/L) are shown. E. In vitro kinase assays using purified recombinant human PFKFB3 were performed as described in the presence or absence of 0.1, 1 or 10 μM 5MPN and the Michaelis-Menten plot examining PFKFB3 enzyme activity as a function of F6P concentration (0 - 400 μmol/L) is shown. Data shown are representative of three independent experiments. […] The activity of 5MPN against 97 kinases was examined using a commercially available active-site dependent competition binding assay core service (KINOMEscanEDGE) that quantifies the capacity of test agents to compete with an immobilized, active-site directed ligand using a DNA-tagged kinase and immobilized ligand and compound.

In assay [2] the test system is 2-[18F]-fluoro-2-deoxyglucose uptake by LLC xenografts. Kind of assay: FDG uptake by micro-PET in LLC tumors. The assay is classed as in vivo, C57BL/6 mice. The settings on record: 120 mg/kg by gavage, once, one hour before imaging. How it is done: (§2) At the end of the experiment, one hour after a single dose of DMSO or 5MPN, animals were euthanized, tumors removed and sections fixed in 10% formaldehyde for immunohistochemistry or snap-frozen in liquid nitrogen for analyses. Subsets of tumor-bearing mice (n=3) were administered a single dose of either DMSO or 5MPN one hour prior to imaging then injected i.p. with 2-[^18F]-fluoro-2-deoxyglucose (FDG, 150μCi, 100 μl) and, 45 min after FDG injection, were anesthetized with 2% isoflurane in oxygen and transferred to a R-4 Rodent Scanner (CTI Concorde Microsystems) micro-positron emission tomograph to capture images as previously described. Regions of interest in the tumors and cerebellum were quantified in quadruplicate and expressed as the mean ± SD of the ratio of tumor:cerebellar FDG uptake. Animal experiments were approved by the University of Louisville Institutional Animal Care and Use Committee.

A further assay has as its system recombinant PFK-1. Kind of assay: PFK-1 kinase activity. The settings on record: 10 μM. It is filed as biochemical.
The subject of assay [3] is intratumoral F2,6BP, LLC xenografts. Kind of assay: Intratumoral F2,6BP in LLC tumors. The settings on record: after 10 days of treatment, one hour after dose by gavage. It is filed as in vivo, C57BL/6 mice. The protocol:
(§3) Cells or tissues were prepared as previously described and F2,6BP content measured using a coupled enzyme reaction following the method of Van Schaftingen et al and normalized to total cellular protein measured by the bicinchoninic acid assay (Thermo Scientific). All data are expressed as the mean ± SD of three experiments. Statistical significance was assessed by the two-sample t test (independent variable).
as §2

The next assay deals with HCT116 cells. Kind of assay: Viable cell count (trypan blue exclusion). The settings on record: HCT116, 48 hours. The assay is classed as cell-based, human. The protocol: (§4) Viability was determined using trypan blue exclusion as previously described. Cells were incubated in 20% trypan blue (Sigma) for 5 minutes. Cells excluding trypan blue were counted using a standard hemocytometer (Hausser Scientific) to determine total numbers of viable cells. Data are expressed as mean ± SD of three experiments.

The test system of the next assay is H522 cells. Kind of assay: Viable cell count (trypan blue exclusion). The assay is classed as cell-based, human. The settings on record: H522, 48 hours. How it is done: as §4
In another assay the test system is H1299 cells. Kind of assay: Viable cell count (trypan blue exclusion). The settings on record: H1299, 48 hours. It is filed as cell-based, human. How it is done: as §4
The next assay relates to MDA-MB-231 cells. Briefly: Viable cell count (trypan blue exclusion). The assay is classed as cell-based, human. The settings on record: MDA-MB-231, 48 hours. How it is done:
as §4

The test system of the next assay is hT/LT/Ras cells. Briefly: Viable cell count (trypan blue exclusion). It is filed as cell-based, human. The settings on record: live cells counted at 48 hours. How it is done: as §4
Assay [4] relates to H460 cells. Briefly: Viable cell count (trypan blue exclusion). The assay is classed as cell-based, human. The protocol: as §4
For another assay, the system named is A549 cells. Briefly: Viable cell count (trypan blue exclusion). It is filed as cell-based, human. The settings on record: A549, 48 hours. How it is done: as §4
Another assay has as its system H441 cells. Briefly: Viable cell count (trypan blue exclusion). The assay is classed as cell-based, human. The settings on record: H441, 48 hours. How it is done: as §4
The next assay has as its system LNCaP cells. Briefly: Viable cell count (trypan blue exclusion). The assay is classed as cell-based, human. The settings on record: 48 hours. How it is done: as §4
In assay [5] the test system is normal human bronchial epithelial (NHBE) cells. Kind of assay: Viable cell count (trypan blue exclusion). The assay is classed as cell-based. The settings on record: live cells counted at 48 hours. The protocol: as §4
In assay [6] the test system is intracellular F2,6BP in H460 cells. Kind of assay: F2,6BP measurement in H460 cells. The assay is classed as cell-based, human. The settings on record: for [F2,6BP]: 24 hours (DMSO 6.1 ±0.2). How it is done: as §3
In assay [7] the test system is panel of 97 protein kinases. Kind of assay: KINOMEscan active-site dependent competition binding assay. The settings on record: 10 μM, data not shown. How it is done: The fructose-6-phosphate kinase activity of human recombinant PFKFB4 and human recombinant PFKFB3 in the presence of DMSO ± indicated concentrations of 5MPN was assayed as previously described. The activity of 5MPN against 97 kinases was examined using a commercially available active-site dependent competition binding assay core service (KINOMEscanEDGE) that quantifies the capacity of test agents to compete with an immobilized, active-site directed ligand using a DNA-tagged kinase and immobilized ligand and compound.

A further assay addresses human recombinant PFKFB4 (Homo sapiens, UniProt Q16877). Kind of assay: In vitro kinase assay with purified recombinant human PFKFB4. The settings on record: Lineweaver-Burk analyses. The assay is classed as biochemical. How it is done:
as §1

Chain of human recombinant PFKFB4 (Q16877 whole entry): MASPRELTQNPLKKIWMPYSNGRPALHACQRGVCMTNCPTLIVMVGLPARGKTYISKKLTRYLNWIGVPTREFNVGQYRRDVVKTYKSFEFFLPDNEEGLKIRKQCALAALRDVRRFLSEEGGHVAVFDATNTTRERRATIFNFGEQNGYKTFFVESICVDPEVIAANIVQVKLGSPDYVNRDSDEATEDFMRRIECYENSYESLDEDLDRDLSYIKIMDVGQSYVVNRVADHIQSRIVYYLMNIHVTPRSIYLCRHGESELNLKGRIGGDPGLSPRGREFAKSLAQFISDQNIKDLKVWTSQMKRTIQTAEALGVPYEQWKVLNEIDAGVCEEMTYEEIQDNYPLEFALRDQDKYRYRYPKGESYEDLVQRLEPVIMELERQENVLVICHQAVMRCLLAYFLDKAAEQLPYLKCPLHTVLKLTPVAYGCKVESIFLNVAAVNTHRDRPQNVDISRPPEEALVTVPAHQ
Chain of human recombinant PFKFB3 (Q16875 whole entry): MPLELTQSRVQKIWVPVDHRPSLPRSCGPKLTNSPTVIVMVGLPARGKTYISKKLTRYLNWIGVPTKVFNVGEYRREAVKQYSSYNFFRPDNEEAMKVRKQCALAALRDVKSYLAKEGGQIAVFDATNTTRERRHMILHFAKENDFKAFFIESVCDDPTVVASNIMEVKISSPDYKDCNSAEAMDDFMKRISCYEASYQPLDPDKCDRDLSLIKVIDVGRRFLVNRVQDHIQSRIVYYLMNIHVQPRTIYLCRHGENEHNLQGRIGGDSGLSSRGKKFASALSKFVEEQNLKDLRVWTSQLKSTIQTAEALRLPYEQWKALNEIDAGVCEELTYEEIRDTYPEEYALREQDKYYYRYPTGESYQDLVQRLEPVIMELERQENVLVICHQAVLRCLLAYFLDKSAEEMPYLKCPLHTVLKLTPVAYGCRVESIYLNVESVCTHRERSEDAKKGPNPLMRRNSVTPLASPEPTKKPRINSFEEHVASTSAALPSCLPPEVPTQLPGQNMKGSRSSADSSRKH

For `COc1cccc2c(NCCCCCO[N+](=O)[O-])ccnc12` [Compound 5MPN, 5-(n-(8-methoxy-4-quinolyl)amino)pentyl nitrate], the cell cycle arrest entry with H460 cells [1] is “marked G1 arrest”. Besides, the “inhibition of PFKFB3 kinase activity” value on human recombinant PFKFB3 is reported as “no inhibition of kinase activity”. Also, in assay [2], the “2-[18F]-fluoro-2-deoxyglucose uptake (positron emission tomography)” value was “marked reduction”. In addition, the “inhibition of PFK-1 kinase activity” value in the assay with recombinant PFK-1 is given as “no inhibition of kinase activity”. Also, the “intratumoral F2,6BP” value in assay [3] is given as “marked reduction”. Besides, the effect on proliferation entry in the assay on HCT116 cells is given as “dose-dependent reduction in growth”; in the assay with H522 cells, “dose-dependent reduction in growth”; with H1299 cells, “dose-dependent reduction in growth”; in the assay with MDA-MB-231 cells it was “dose-dependent reduction in growth”; in the assay on H460 cells [4] (H460, 48 hours) it was “dose-dependent reduction in growth”; with A549 cells, “dose-dependent reduction in growth”. The effect on proliferation result with H441 cells and in the assay on LNCaP cells was “dose-dependent reduction in growth” each time. In addition, the “effect on cell growth” value in the assay with hT/LT/Ras cells was “suppressed similar to other transformed cells”; in assay [5], “virtually unaffected”. Moreover, in the assay on H460 cells [4] (H460 cells transfected with PFKFB4 vs empty vector, 10μM 5MPN, 24 hours), the “effect of PFKFB4 over-expression on anti-proliferative effect” value is listed as “protected”. The “[F2,6BP]” value is reported as 2.3 ±0.05 pmol/mg protein in assay [6] (5μM 5MPN), 1.52 ±0.2 pmol/mg protein in [6] (10μM 5MPN), 0.75±0.09 pmol/mg protein in assay [6] (20 μM 5MPN) and 0.43 ±0.1 pmol/mg protein in assay [6] (30 μM 5MPN). Moreover, in assay [6] (Vec vs FB4, 10 μM 5MPN, 24 hours), the “effect of PFKFB4 over-expression on the reduction in F2,6BP caused by 5MPN” value is listed as “reversed”. For the same molecule, the “inhibition of a panel of 97 protein kinases” value in assay [7] was “not inhibited”. The mode of inhibition entry at human recombinant PFKFB4 is recorded as “competitive inhibitor of the F6P binding site”. In addition, the Ki (usually the dissociation constant of the complex between target and ligand, obtained from inhibition or displacement) on human recombinant PFKFB4 (F6P as substrate, read-out: Ki for 5MPN inhibition) amounted to 8.6 ± 1.9 µM.

For the origin of these results see article PMC4627231, “Targeting the sugar metabolism of tumors with a first-in-class 6-phosphofructo-2-kinase (PFKFB4) inhibitor” (Oncotarget, 2015).
